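Method: 48-hour compound exposure of cells in 96-well plates, five concentrations, linear interpolation of endpoints. TGI marks complete inhibition of growth.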
Columns and labels:
Test in all cases: inhibition of tumour cell growth, NCI panel, 48 h
HCC-2998 colon = test system: HCC-2998 colon
HCT-116 colon = test system: HCT-116 colon
HCT-15 colon = test system: HCT-15 colon
HT29 colon = test system: HT29 colon
KM12 colon = test system: KM12 colon
MDA-MB-435 = test system: MDA-MB-435
MDA-N = test system: MDA-N
NCI-H460 lung = test system: NCI-H460 lung
NCI-H522 lung = test system: NCI-H522 lung
OVCAR-3 ovarian = test system: OVCAR-3 ovarian
SK-MEL-28 melanoma = test system: SK-MEL-28 melanoma
SK-MEL-5 melanoma = test system: SK-MEL-5 melanoma
SNB-75 CNS = test system: SNB-75 CNS
SW-620 colon = test system: SW-620 colon
T-47D breast = test system: T-47D breast
TK-10 renal = test system: TK-10 renal
RPMI-8226 leukemia = test system: RPMI-8226 leukemia
HOP-92 NSCLC = test system: HOP-92 NSCLC

Row | Structure (SMILES) | TGI (HCC-2998 colon) [µM] | TGI (HCT-116 colon) [µM] | TGI (HCT-15 colon) [µM] | TGI (HT29 colon) [µM] | TGI (KM12 colon) [µM] | TGI (MDA-MB-435) [µM] | TGI (MDA-N) [µM] | TGI (NCI-H460 lung) [µM] | TGI (NCI-H522 lung) [µM] | TGI (OVCAR-3 ovarian) [µM] | TGI (SK-MEL-28 melanoma) [µM] | TGI (SK-MEL-5 melanoma) [µM] | TGI (SNB-75 CNS) [µM] | TGI (SW-620 colon) [µM] | TGI (T-47D breast) [µM] | TGI (TK-10 renal) [µM] | TGI (RPMI-8226 leukemia) [µM] | TGI (HOP-92 NSCLC) [µM]
1 | SC[C@@H]1COC[C@H](CS)S1 | > 100 | > 100 | > 100 | > 100 | > 100 | > 100 | > 100 | > 100 | > 100 | > 100 | > 100 | > 100 | > 100 | > 100 | > 100 | > 100 |  | 
2 | CC(C)(C)[Si](C)(C)OCC1OC(n2cc(F)c(=O)[nH]c2=O)CC1O[Si](C)(C)C(C)(C)C (stereo unspecified) | 3.48 | 19.8 | 20.4 | > 100 | 14.7 | 26.5 | 18.4 | 15.7 | 12.7 | 32.5 |  | 17.1 | 15.9 | 23.1 | 12.7 | 13.9 | 12.9 | 
3 | NC(=O)Cc1ncn(-c2ccccc2)n1 |  | > 100 | > 100 | > 100 | > 100 | > 100 | > 100 |  | > 100 | > 100 |  | > 100 | > 100 | > 100 | > 100 | > 100 | > 100 | > 100
4 | CC1CC(=O)N2CCCNC2=C1C#N (stereo unspecified) | > 100 | > 100 | > 100 | > 100 | > 100 | > 100 | > 100 | > 100 | > 100 | > 100 | > 100 | > 100 | > 100 | > 100 | > 100 | > 100 | > 100 | 
5 | CC1=Nc2nc3ccccc3n2C(C)(C)C1 |  | > 100 | > 100 | > 100 | > 100 | > 100 | > 100 | > 100 | > 100 | > 100 |  | > 100 | > 100 | > 100 | > 100 | > 100 | > 100 | > 100
6 | Cn1c(N(CCO)CCO)cnc1[N+](=O)[O-] |  | > 100 | > 100 | > 100 | > 100 | > 100 | > 100 | > 100 | > 100 | > 100 |  | > 100 | > 100 | > 100 | > 100 | > 100 | > 100 | > 100

Source: PubChem BioAssay (NCI)
